{"source": "patent US9289506B2", "about": "“Surface binding of nanoparticle based drug delivery to tissue” (Massachusetts Institute of Technology, priority 2013, dated 2016)", "key": {"[1]": {"assay": "Non-equilibrium diffusive transport across cartilage disks (transport cell)", "type": "in vitro ADME, bovine", "details": "400 μm thick disks, 20° C.", "method": "Real-time measurement of diffusive transport of Avidin and NeutrAvidin through young bovine cartilage disks (with intact superficial zone) was measured using a diffusion chamber consisting of two compartments as described previously (Garcia et al., Arch Biochem Biophys, 2003). Groups of three cartilage disks (6 mm diameter, 400 μm thick) were clamped by O-rings between the two compartments of the diffusion chamber (with total exposed tissue area for transport of 0.28 cm^2/disk), such that solute transport from the upstream compartment into and across the cartilage disks, simultaneously, could occur only from the superficial zone of the cartilage (schematic shown in the inset of FIG. 14). The compartments were treated with casein to prevent non-specific adsorption of solutes to the chamber surfaces. […] Aliquots were taken from each chamber at different time intervals, and fluorescence was measured using a plate reader.\nThe compartment volume of 25 ml is approximately 1,000× larger than the volume of the cartilage plugs in the configuration of FIG. 14 (inset). […] This configuration thereby focuses on quantitation of steady state solute flux and assessment of effective solute diffusivity within cartilage. […]\n[formula] where δ is the thickness of the cartilage disk (˜400 μm). DEFF for Avidin was calculated to be 3.8×10^−7 cm^2/s. […]"}, "[2]": {"assay": "Competitive binding of FITC-Avidin and unlabeled Avidin in cartilage (binding isotherm fit)", "design": "species or system bovine", "details": "best fit of binding isotherm to FIG. 13 data", "method": "To test this hypothesis, competitive binding experiments were performed in which 3 mm diameter cartilage disks were equilibrated for 3 days in 300 μl buffer containing a fixed amount of (fluorescently labeled) FITC-Avidin (1 μM) and graded amounts of unlabeled Avidin (0, 10, 76, 100, and 203 μM). The disks were split into half disks to reduce the time needed for equilibration, which was performed in 96 well plates at 37° C. The uptake ratio, RU, was measured and plotted versus the total bath concentration of Avidin (labeled+unlabeled, FIG. 13), where RU is defined as the total concentration of Avidin inside the cartilage (bound (CB) plus free (CF)) per intra-tissue water weight, normalized to the Avidin concentration in the equilibration bath (CBath):\nLabeled and unlabeled Avidin were held to partition into the cartilage identically. At very low concentration of the labeled Avidin (≦1 μM), a high uptake of ˜120 was observed. When unlabeled Avidin was added to the bath, both species (labeled and unlabeled) could compete for the same (constant) number of binding sites available in the tissue (site density NT). […] To model the data of FIG. 13, a first-order, bimolecular, reversible reaction was produced to describe binding of Avidin to a single dominant binding species within cartilage. A theoretical model was adopted, (Garcia et al., Arch Biochem Biophys, 2003) previously used for characterizing the binding of soluble insulin like growth factor-1 (IGF-1) to IGF-binding proteins (IGF-BPs) that are uniformly enmeshed and fixed within cartilage matrix. According to this model, the equilibrium molar concentration of free solute (CF), bound solute (CB), intra-tissue binding site density (NT) and the equilibrium dissociation constant (KEQ) are related by the binding isotherm:\n[formula] which is similar in form to a Langmuir adsorption isotherm. […]\n[formula] […] Thus, K is determined by both steric hindrance and electrostatic (Donnan) interactions. […]"}}, "note": "Several values for one entry are separate records, joined by “and”; a condition that tells them apart may be missing. Identical values can stand only once.", "data": [{"substance": "Avidin: positively charged globular glycosylated tetrameric protein, pI 10.5, 66 kDa, diameter ~7 nm (Invitrogen); SEQ ID NO 1", "values": [{"measurement": "time lag τlag to achieve the steady state flux", "setting": "[1]", "value": "~35", "unit": "min"}, {"measurement": "equilibrium partition coefficient K", "setting": "[2]", "value": "~6"}, {"measurement": "Kd", "setting": "[2]; read-out: equilibrium dissociation constant KEQ", "value": "150 µM and ~150 µM"}]}]}
